Reference: PubChem BioAssay AID1549 (Sanford-Burnham Center for Chemical Genomics, 2009)
The source made the active and inactive calls. No rule for the calls is given here.

Biological target: Influenza A virus M2 proton channel (A/TW/4845/1999 H1N1)
Test: M2 proton channel binding, NMR based, influenza A virus H1N1 strain (AID 1549)
Details: NMR binding screen, M2 protein

Structure (SMILES)	Kd
CSc1nnc(CN2CCSCC2)n1C	> 4 mM (inactive)
Cn1c(CO)nc2ccccc21	> 4 mM (inactive)
CCN1CCN(c2ncnc3c2nnn3C)CC1	> 4 mM (inactive)
CC1(C)C(=O)C=C[C@@]2(C)C1CC(=O)[C@]1(C)C2CC[C@@]2(C)[C@H](c3ccoc3)OC(=O)[C@H]3O[C@]321 (some centres not stated)	> 4 mM (inactive)
Cc1cccc(C)c1NC(=O)/C=C/C(=O)O	> 4 mM (inactive)
O=C(O)CC12CC3CC(CC(O)(C3)C1)C2	> 4 mM (inactive)
Nc1nc2ncc(CNc3ccc(C(=O)N[C@@H](CCC(=O)O)C(=O)O)cc3)nc2c(=O)[nH]1	> 4 mM (inactive)
COC1=CC(C)[C@@H]2C[C@H]3OC(=O)C[C@H]4C(C)=C(OC)C(=O)C([C@@]34C)[C@@]2(C)C1=O (some centres not stated)	> 4 mM (inactive)
Cn1cc(Cl)c(C(=O)NC2CCCCCC2)n1	> 4 mM (inactive)
CC(=O)Oc1c(C)c(C)c2c(c1C)CCC(C)(CCCC(C)CCCC(C)CCCC(C)C)O2 (configuration not stated)	> 4 mM (inactive)
CC(=O)Oc1c2c(c3c(c1CC=C(C)C)O[C@]14C(=C[C@@H]5CC1C(C)(C)OC4(C/C=C(\C)C(=O)O)C5=O)C3=O)OC(C)(CCC=C(C)C)C=C2 (some centres not stated)	> 4 mM (inactive)
CC1(C)CC2(C)N(N)C(=O)CN2C(=S)N1 (configuration not stated)	> 4 mM (inactive)
CSc1nnc2c(n1)OC(C)=Nc1ccccc1-2	> 4 mM (inactive)
CC(=O)Oc1ccc(-c2cc(=O)c3c(OC(C)=O)cc(OC(C)=O)cc3o2)cc1	> 4 mM (inactive)
O=C(Cn1cncn1)c1ccc(F)c(F)c1	> 4 mM (inactive)
O=C(Nc1ccccc1N1CCCC1)c1cccnc1	> 4 mM (inactive)
Cc1sc2nc(SC3CCOC3=O)[nH]c(=O)c2c1C (configuration not stated)	> 4 mM (inactive)
Cc1ccc(C(=O)N2CCC(C(=O)O)CC2)cc1	> 4 mM (inactive)
Cc1cc(O)c(C=O)c(O)c1C(=O)O	> 4 mM (inactive)
O=C(/C=C/c1ccccc1)NC1CCS(=O)(=O)C1 (configuration not stated)	> 4 mM (inactive)
Cc1csc(SCC(=O)N2CCCC2)n1	> 4 mM (inactive)
C=C(C)[C@H]1CC=C(C(=O)O)CC1	> 4 mM (inactive)
NC(=O)c1ccc(C(N)=O)c(-c2ccccc2)c1	> 4 mM (inactive)

Structure (SMILES)	Kd
CCN1CCc2c(sc(N)c2C(N)=O)C1	> 4 mM (inactive)
CCC(C)C(=O)O[C@@H]1C[C@@]2(C)[C@H](c3ccoc3)OC(=O)CC23OC2(C)OC34[C@H](OC(=O)C(C)C)[C@@]3(O)[C@@H](OC(=O)C5(C)OC5C)[C@@]5(C)C[C@]3(O)[C@@](C)([C@H]5CC(=O)OC)C14O2 (some centres not stated)	> 4 mM (inactive)
Cc1nc(SCC#N)c2c(C)c(C)sc2n1	> 4 mM (inactive)
O=C(O)CSc1nc2ccccc2c(=O)[nH]1	> 4 mM (inactive)
Nc1ncc2[nH]cnc2n1	> 4 mM (inactive)
O=C(O)c1ccc(N2CCOCC2)cc1	> 4 mM (inactive)
COc1ccc2c3c1O[C@H]1C[C@@H](O)C=C[C@@]31CCN(C)C2	> 4 mM (inactive)
Fc1cc2nccnc2cc1N1CCSCC1	> 4 mM (inactive)
CC(=O)O[C@H]1C[C@@]2(C)[C@@H](C[C@@H](O)C3[C@]2(C)CC[C@H]2[C@H](C)[C@H](O)CC[C@]32C)/C1=C(/CCC=C(C)C)C(=O)O (some centres not stated)	> 4 mM (inactive)
O=C1C=C(O)c2ccccc2C1=O	> 4 mM (inactive)
O=C(NC(=S)NC1CCSC1=O)c1ccco1 (configuration not stated)	> 4 mM (inactive)
Cc1cc(N)n(C2CCOC(C)(C)C2)n1 (configuration not stated)	> 4 mM (inactive)
NCCNC(=S)Nc1ccccc1	> 4 mM (inactive)
Cc1nc(-c2cccc(N)c2)cs1	> 4 mM (inactive)
O=C1CSC(=Nc2cccc(C(F)(F)F)c2)N1	> 4 mM (inactive)
CC1=C(CCC(=O)O)c2cc3nc(cc4[nH]c(cc5[nH]c(cc1n2)c(C)c5C(C)O)c(C)c4C(C)O)C(C)=C3CCC(=O)O (configuration not stated)	> 4 mM (inactive)
CC(=O)OCC(=O)[C@@]1(O)CCC2C3CC[C@@H]4C[C@H](O)CC[C@]4(C)C3C(=O)C[C@@]21C (some centres not stated)	> 4 mM (inactive)
COc1ccc(-c2cc(=O)c3c(OC(C)=O)cc(OC(C)=O)cc3o2)cc1	> 4 mM (inactive)
O=C1N=c2ccccc2=C1c1[nH]c(=S)[nH]c1O	> 4 mM (inactive)
Cc1nc(-c2cccc(C(=O)O)c2)cs1	> 4 mM (inactive)
CN1CN/C(=N\[N+](=O)[O-])N(c2ccccc2)C1	> 4 mM (inactive)
CC(=O)O[C@H]1C[C@@H](OC(C)=O)C(C)(C)C2C[C@@H](OC(C)=O)[C@]3(C)C(CC[C@@]4(C)[C@H](c5ccoc5)C(=O)[C@H]5O[C@]543)[C@]21C (some centres not stated)	> 4 mM (inactive)
NCC1COc2ccccc2O1 (configuration not stated)	> 4 mM (inactive)

Structure (SMILES)	Kd
CC(C)Oc1ccc(NC(N)=O)cc1	> 4 mM (inactive)
O=c1[nH]c(NCCO)nnc1Cc1ccccc1	> 4 mM (inactive)
O=S1(=O)NC(=NCc2ccccc2)c2ccccc21	> 4 mM (inactive)
CC(=O)Nc1ccc(NC(=O)N2CCOCC2)cc1	> 4 mM (inactive)
N/C(=N/O)C1COc2ccccc2O1 (configuration not stated)	> 4 mM (inactive)
N=c1n(N)c2ccccc2n1CCO	> 4 mM (inactive)
Cc1cc(=O)c2c(O)cc(O)c(C)c2o1	> 4 mM (inactive)
CCN1C(=O)N(CO)C2C1N(C)C(=O)N2C (configuration not stated)	> 4 mM (inactive)
Nc1scc[n+]1CC(=O)[O-]	> 4 mM (inactive)
O=C(Nc1nc2c(s1)CCCC2)c1cccnc1	> 4 mM (inactive)
NS(=O)(=O)c1ccc(NC(=O)C(F)(F)F)cc1	> 4 mM (inactive)
O=C(COc1ccccc1Cl)N1CCCC1	> 4 mM (inactive)
Cc1cc(C)n(S(=O)(=O)c2cc(C)c(C)cc2C)n1	> 4 mM (inactive)
OCCNC(=S)Nc1ccccc1	> 4 mM (inactive)
CN1CCC(NC(=O)c2ccccc2[N+](=O)[O-])CC1	> 4 mM (inactive)
CNS(=O)(=O)c1cc(OC)ccc1OC	> 4 mM (inactive)
O=C(Nc1cccc2ncccc12)c1cccnc1	> 4 mM (inactive)
COc1ccc([C@H]2Oc3c(I)c(OC)cc(OC)c3C[C@@H]2O)cc1OC	> 4 mM (inactive)
Cc1cc(S(=O)(=O)N2CCOCC2)ccc1F	> 4 mM (inactive)
Cn1c(CN)nc2ccccc21	> 4 mM (inactive)
CC(=O)NCS(=O)(=O)c1ccc(C)cc1	> 4 mM (inactive)
Cc1cccc(NC(=O)CN2C(=O)CNC2=O)c1	> 4 mM (inactive)
COC(=O)c1ccc(N2CCOCC2)nc1	> 4 mM (inactive)

Structure (SMILES)	Kd
CCOC(=O)Cn1cnc2c1c(=O)[nH]c(=O)n2C	> 4 mM (inactive)
Cc1cc(C(=O)N2CCN(c3ccccn3)CC2)no1	> 4 mM (inactive)
Nc1ccnc(C(=O)O)c1	> 4 mM (inactive)
Cc1cc(C)n(-c2ccc(Cl)nn2)n1	> 4 mM (inactive)
Cc1nccn1CCC(=O)O	> 4 mM (inactive)
CC(=O)N1CCN(c2ccc(O)cc2)CC1	> 4 mM (inactive)
O=C1CCCCCN1CO	> 4 mM (inactive)
Cn1c(=O)c2[nH]cnc2n(C)c1=O	> 4 mM (inactive)
CN(C)CCNC(CC(=O)Nc1ccccc1)C(=O)O (configuration not stated)	> 4 mM (inactive)
Nc1ccc(NS(=O)(=O)c2ccc(N)cc2)cc1	> 4 mM (inactive)
CC1(C)Cc2cccc(CO)c2O1	> 4 mM (inactive)
CCOC(=O)C1CCC(=O)c2cccn21 (configuration not stated)	> 4 mM (inactive)
CC(=O)OC1CCC23C(=O)OC45CCC(C6=CC(=O)OC6)C4(C)CCC2C5CCC3(O)C1 (configuration not stated)	> 4 mM (inactive)
COc1ccc2c(c1OC)C(=O)O[C@H]2[C@H]1c2cc3c(cc2CCN1C)OCO3	> 4 mM (inactive)
CC(C)=CC(=O)Nc1ccccc1Br	> 4 mM (inactive)
CC[C@]12CCCN3CCc4c(n(c5ccccc45)[C@](O)(C(=O)OC)C1)[C@@H]32	> 4 mM (inactive)
Cc1nc(-c2ccccc2)ncc1CO	> 4 mM (inactive)
Cc1cc(Cl)ccc1NC(=O)C(N)=O	> 4 mM (inactive)
CC1=C(C(N)=O)C(c2ccco2)C(C(N)=O)=C(C)N1	> 4 mM (inactive)
O=C(Nc1cnccn1)c1cccs1	> 4 mM (inactive)
O=C1NC(=S)N/C1=C\c1ccccc1	> 4 mM (inactive)
COC(=O)c1ccccc1C	> 4 mM (inactive)
S=c1[nH]nc(-c2cccnc2)n1Cc1ccccc1	> 4 mM (inactive)

Structure (SMILES)	Kd
CN1CCC(N(C)Cc2cccnc2)CC1	> 4 mM (inactive)
S=c1ccc(N2CCCCC2)n[nH]1	> 4 mM (inactive)
COC1C=CC23c4cc5c(cc4CN(CC2O)[C@@H]3C1)OCO5 (some centres not stated)	> 4 mM (inactive)
O=c1cc(-c2ccc(O)cc2)oc2cc(O[C@@H]3O[C@H](CO)[C@@H](O)[C@H](O)[C@H]3O[C@@H]3OC[C@](O)(CO)[C@H]3O)cc(O)c12	> 4 mM (inactive)
O=C(c1ccccc1)c1ccccc1C(=O)N1CCOCC1	> 4 mM (inactive)
Cc1ccc(/C=N/NC(N)=O)o1	> 4 mM (inactive)
CO[C@H]1[C@@H](O)[C@@H](C)O[C@H](O[C@H]2CCC3(C)C4CCC5(C)[C@@H](C6=CC(=O)OC6)CC[C@]5(O)[C@@H]4CC[C@]3(O)C2)[C@@H]1O (some centres not stated)	> 4 mM (inactive)
O=C(Nn1cnnc1)c1csc2ccccc12	> 4 mM (inactive)
O=C(O)Cn1cnc2ccccc2c1=O	> 4 mM (inactive)
O=c1[nH]c(N2CCOCC2)nc2ccccc12	> 4 mM (inactive)
CC(=O)NC(=S)Nc1ccc(N(C)C(C)=O)cc1	> 4 mM (inactive)
Nc1csc(C(=O)O)c1	> 4 mM (inactive)
c1ccc(Cn2c(Nn3cnnc3)nc3ccccc32)cc1	> 4 mM (inactive)
Cc1cc2ncc(C(=O)O)c(C)n2n1	> 4 mM (inactive)
COc1ccc2c(c1)CCCN2C(N)=O	> 4 mM (inactive)
O=c1cc(-c2ccc(O)cc2)[nH]c(=S)[nH]1	> 4 mM (inactive)
COc1ccc2c(c1OC)OC[C@@H](c1ccc(OC)c(OC)c1OC)C2	> 4 mM (inactive)
O=C(O)c1ccc2c(c1)CCO2	> 4 mM (inactive)
CN(C)C(=O)N1CCN(C(=O)c2ccco2)CC1	> 4 mM (inactive)
COc1ccc(NC(=O)/C=N/O)cc1	> 4 mM (inactive)
